From ChEMBL document CHEMBL4196068, “Synthesis, molecular modeling and evaluation of α-glucosidase inhibition activity of 3,4-dihydroxy piperidines” (Eur J Med Chem, 2018)

tested on: Saccharomyces cerevisiae; assay: Potency index, ratio of miglitol IC50 to compound IC50 for inhibition of Saccharomyces cerevisiae alpha-glucosidase

Ratio IC50	Compound
2 to 3	Nc1ccc(CCC(=O)N2CC[C@@H](O)[C@@H](O)C2)cc1 (relative stereo)
3 to 4	O=C(CCc1ccc(NS(=O)(=O)c2ccc(C(F)(F)F)cc2)cc1)N1CC[C@H](O)[C@H](O)C1 (relative stereo)

tested on: Saccharomyces cerevisiae; assay: Potency index, ratio of acarbose IC50 to compound IC50 for inhibition of Saccharomyces cerevisiae alpha-glucosidase

Ratio IC50	Compound
2 to 3	Nc1ccc(CCC(=O)N2CC[C@@H](O)[C@@H](O)C2)cc1 (relative stereo)
3 to 4	O=C(CCc1ccc(NS(=O)(=O)c2ccc(C(F)(F)F)cc2)cc1)N1CC[C@H](O)[C@H](O)C1 (relative stereo)

biological target: not listed separately; assay: Inhibition of Saccharomyces cerevisiae alpha-glucosidase using p-nitrophenyl-alpha-D-glucopyranoside as substrate preincubated for 15 to 20 mins followed by substrate addition measured after 45 to 60 mins by spectrophotometric analysis

IC50 [µM]	Compound
488	O=C(CCc1ccc(O)cc1)Nc1ccc(CCC(=O)N2CC[C@@H](O)[C@H](O)C2)cc1 (relative stereo)
267	O=C(Nc1ccc(CCC(=O)N2CC[C@H](O)[C@H](O)C2)cc1)c1ccsc1 (relative stereo)
710	O=C(/C=C/c1ccc(C(F)(F)F)cc1)Nc1ccc(CCC(=O)N2CC[C@@H](O)[C@H](O)C2)cc1 (relative stereo)
292	O=C(CCc1ccc(O)cc1)N1CC[C@@H](O)[C@@H](O)C1 (relative stereo)
994	O=C(CCc1ccccc1)N1CC[C@@H](O)[C@@H](O)C1 (relative stereo)
667	O=C(/C=C/c1ccsc1)Nc1ccc(CCC(=O)N2CC[C@H](O)[C@H](O)C2)cc1 (relative stereo)
284	O=C(CCc1ccc(O)cc1)Nc1ccc(CCC(=O)N2CC[C@H](O)[C@H](O)C2)cc1 (relative stereo)
211	Nc1ccc(CCC(=O)N2CC[C@@H](O)[C@@H](O)C2)cc1 (relative stereo)
383	CC(C)(C)OC(=O)Nc1ccc(CCC(=O)Nc2ccc(CCC(=O)N3CC[C@H](O)[C@H](O)C3)cc2)cc1 (relative stereo)
152	O=C(CCc1ccsc1)N1CC[C@H](O)[C@@H](O)C1 (relative stereo)
384	Nc1ccc(CCC(=O)Nc2ccc(CCC(=O)N3CC[C@@H](O)[C@H](O)C3)cc2)cc1 (relative stereo)
663	CC(C)(C)OC(=O)Nc1ccc(CCC(=O)N2CC[C@@H](O)[C@@H](O)C2)cc1 (relative stereo)
742	O=C(CCc1ccc(C(F)(F)F)cc1)N1CC[C@@H](O)[C@@H](O)C1 (relative stereo)
890	O=C(/C=C/c1ccc(C(F)(F)F)cc1)Nc1ccc(CCC(=O)N2CC[C@H](O)[C@H](O)C2)cc1 (relative stereo)
479	O=C(CCc1ccc(C(F)(F)F)cc1)Nc1ccc(CCC(=O)N2CC[C@H](O)[C@H](O)C2)cc1 (relative stereo)
389	Cn1c(CCC(=O)N2CC[C@@H](O)[C@@H](O)C2)cc2ccccc21 (relative stereo)
746	CC(C)(C)OC(=O)Nc1ccc(CCC(=O)Nc2ccc(CCC(=O)N3CC[C@@H](O)[C@H](O)C3)cc2)cc1 (relative stereo)
289	Nc1ccc(CCC(=O)N2CC[C@H](O)[C@@H](O)C2)cc1 (relative stereo)
888	O=C(/C=C/c1ccsc1)N1CC[C@@H](O)[C@@H](O)C1 (relative stereo)
465	O=S(=O)(c1ccc(OC(F)(F)F)cc1)N1CC[C@@H](O)[C@@H](O)C1 (relative stereo)
594	O=C(CCc1ccc(N(S(=O)(=O)c2ccc(C(F)(F)F)cc2)S(=O)(=O)c2ccc(C(F)(F)F)cc2)cc1)N1CC[C@H](O)[C@H](O)C1 (relative stereo)
749	O=C(CCc1ccc(NS(=O)(=O)c2ccc(F)cc2)cc1)N1CC[C@H](O)[C@H](O)C1 (relative stereo)
103	O=C(CCc1ccc(NS(=O)(=O)c2ccc(C(F)(F)F)cc2)cc1)N1CC[C@H](O)[C@H](O)C1 (relative stereo)
442	O=C(/C=C/c1ccc(O)cc1)N1CC[C@@H](O)[C@@H](O)C1 (relative stereo)
247	Nc1ccc(CCC(=O)Nc2ccc(CCC(=O)N3CC[C@H](O)[C@H](O)C3)cc2)cc1 (relative stereo)
422	O=C(CCc1ccc(O)cc1)N1CC[C@H](O)[C@@H](O)C1 (relative stereo)
349	O=C(/C=C/c1ccc(F)cc1)Nc1ccc(CCC(=O)N2CC[C@H](O)[C@H](O)C2)cc1 (relative stereo)
360	C[C@H]1O[C@H](O[C@H]2[C@H](O)[C@@H](O)[C@@H](O[C@H]3[C@H](O)[C@@H](O)C(O)O[C@@H]3CO)O[C@@H]2CO)[C@H](O)[C@@H](O)[C@@H]1N[C@H]1C=C(CO)[C@@H](O)[C@H](O)[C@H]1O (stereo partly specified) [ACARBOSE]
462	OCCN1C[C@H](O)[C@@H](O)[C@H](O)[C@H]1CO [MIGLITOL]
325	OCC(CO)N[C@H]1C[C@](O)(CO)[C@@H](O)[C@H](O)[C@H]1O [VOGLIBOSE]

tested on: Saccharomyces cerevisiae; assay: Potency index, ratio of voglibose IC50 to compound IC50 for inhibition of Saccharomyces cerevisiae alpha-glucosidase

Ratio IC50	Compound
2 to 3	Nc1ccc(CCC(=O)N2CC[C@@H](O)[C@@H](O)C2)cc1 (relative stereo)
3 to 4	O=C(CCc1ccc(NS(=O)(=O)c2ccc(C(F)(F)F)cc2)cc1)N1CC[C@H](O)[C@H](O)C1 (relative stereo)
